Experiment [1] relates to prostate tumor cell. Conditions: earlier work (U.S. Ser. No. 15/403,965); cited from earlier work.
The test system of experiment [2] is STAT3, JNK, ERK, and AKT. Conditions: earlier work (U.S. Ser. No. 15/403,965); cited from earlier work.
In experiment [3] the test system is OSM-induced phosphorylation of STAT3 on Tyr-705 (pSTAT3). Put plainly: ELISA of OSM-induced phosphorylation of STAT3 (pSTAT3) with inhibitor pretreatment. Format: cell-based, human. The conditions noted are these: for reduction in OSM induced phosphorylation of STAT3 (pSTAT3): 10, 50, and 100 μM per the method of Example 1, FIGS. 4A and 4B; for effect on OSM induced pSTAT3 phosphorylation, initial tests: OSM with or without inhibitor pretreatment, FIG. 3; for reduction of the OSM induced increase in pSTAT3 expression: initial testing, FIG. 6. As for the experimental part: Therefore, the phosphyloration of various signaling pathways was assayed using an ELISA both with and without inhibitors and at various concentrations.
All human breast carcinoma cell lines used in this aim were purchased from the American Type Culture Collection (ATCC) or Caliper Life Sciences, and the growth of frozen cell aliquots will be initiated on a periodic basis to remove the possibility of cross-cell contamination. The cell lines were regularly tested for mycoplasma contamination by both DAPI staining and PCR. Four invasive ductal carcinoma cell lines, T47D, MCF7, MDA-MB-231 and MDA-MB-468, were used. These include the less aggressive, estrogen receptor-positive (ER+), progesterone receptor positive (PR+), HER2−, luminal T47D and MCF7-luc cell lines, as well as the triple negative breast cancer (TNBC) basal-like cell line, MDA-MB-231-LN-luc, that is metastatic in orthotopic xenografts and the less metastatic TNBC cell line MDA-MB-468. All cell lines express OSMRb, LIFRb, and gp130, as well as various levels of OSM, by RT-PCR
An enzyme-linked immunosorbent assay (ELISA) was used for analyzing initial OSM-induced phosphorylation of STAT3 on Tyr-705 (pSTAT3). T47D, MCF7, and MDA-MB-231 human breast cancer cells induced pSTAT3 upon stimulation with OSM (25 ng/ml) for 30 minutes. OSM-SMI-8 modified inhibitors were used to pretreat the cells in order to assay their ability to inhibit OSM-OSMR interactions. Pretreatment consisted of administering to the cells either 5, 10, 50, or 100 μM of the modified OSM-SMI-8 based inhibitor for 2 hours prior to administration of OSM.
Background: ELISA stands for enzyme-linked immunosorbent assay.

Experiment [4] relates to OSM induced secretion of IL-6. In words: ELISA of OSM induced IL-6 secretion. Conditions: pretreatment with inhibitor; FIG. 5. Format: cell-based. As for the experimental part: (§1) OSM-SMI-10B was also assayed for its effect on OSM induced secretions of both VEGF and IL-6 by ELISA (FIG. 5).
For experiment [5], the system named is OSM induced secretion of VEGF. Put plainly: ELISA of OSM induced VEGF secretion. Format: cell-based. Conditions: pretreatment with inhibitor; FIG. 5. The protocol: as §1

As for `O=C(O)/C(=C\C=C\c1ccccc1)c1coc(-c2nc(/C(=C/C=C/c3ccccc3)C(=O)O)co2)n1` [OSM-SMI-8], the “inhibition of OSM induced prostate tumor cell detachment” value in experiment [1] was “shown to inhibit”. The “inhibition of OSM induced phosphorylation of STAT3, JNK, ERK, and AKT” value in experiment [2] was “shown to inhibit”.
On to `O=C(O)/C=C/c1cc(-c2ccc3c(c2)OCO3)c(-c2ccc3c(c2)OCO3)o1` [OSM-SMI-10B], for which, in experiment [3], the “reduction in OSM induced phosphorylation of STAT3 (pSTAT3)” value (from here on “reduction in OSM induced phosphorylation”) was “significant reduction in pSTAT3 at every treatment level” and the “effect on OSM induced pSTAT3 phosphorylation, initial tests” value (“effect” for short) is “inhibitory effect”. The “reduction in the OSM induction of IL-6 secretion” value in experiment [4] is on record as “large reduction”. Further, the “reduction in the OSM induction of VEGF secretion” value in experiment [5] is “large reduction”.
As for `O=C(/C=C/c1cc(-c2ccc3c(c2)OCO3)c(-c2ccc3c(c2)OCO3)o1)c1ccccc1` [OSM-SMI-10C], in experiment [3], the “reduction in OSM induced phosphorylation” value was “significant reduction in pSTAT3 at every treatment level” and the “effect” value is “inhibitory effect”.
For `CCOC(=O)/C=C/c1cc(-c2ccc3c(c2)OCO3)c(-c2ccc3c(c2)OCO3)o1` [OSM-SMI-10D], in experiment [3], the “effect” value was “inhibitory effect”.
As for `C(=N\Nc1ccccc1)/c1cc(-c2ccc3c(c2)OCO3)c(-c2ccc3c(c2)OCO3)o1` [OSM-SMI-10E], in experiment [3], the “reduction in OSM induced phosphorylation” value is reported as “significant reduction in pSTAT3 at every treatment level” and the “effect” value is reported as “inhibitory effect”.
In the case of `O=C(NCc1ccccc1)c1cc(-c2ccc3c(c2)OCO3)c(-c2ccc3c(c2)OCO3)o1` [OSM-SMI-10J], the “effect” value in experiment [3] is given as “inhibitory effect”.
Consider `O=[N+]([O-])c1c(/C=N/Nc2ccccc2)oc(-c2ccc3c(c2)OCO3)c1-c1ccc2c(c1)OCO2` [OSM-SMI-10], for which the “inhibition of OSM induced prostate tumor cell detachment” value in experiment [1] is “shown to inhibit”. Besides, the “inhibition of OSM induced phosphorylation of STAT3, JNK, ERK, and AKT” value in experiment [2] was “shown to inhibit”.
For `O=C(/C=C/c1ccccc1)c1cccc(N2C(=O)c3ccc(Oc4ccc5c(c4)C(=O)N(c4cccc(C(=O)/C=C/c6ccccc6)c4)C5=O)cc3C2=O)c1` [OSM-SMI-23], the “reduction of the OSM induced increase in pSTAT3 expression” value in experiment [3] is reported as “more than about half”.
Same read-out and setting: for `Cc1ccc(-c2cc(C(=O)Nc3cccc(C(=O)O)c3)c3cc(Br)ccc3n2)cc1C` [OSM-SMI-26] the value was “more than about half”.

The record behind these values is patent US11633457B2, “Pharmaceutical compositions comprising oncostatin m (OSM) antagonist derivatives and methods of use” (Boise State University, priority 2019, dated 2023).
